In ChEMBL document CHEMBL1629562, “Activity of indenoisoquinolines against African trypanosomes” (Antimicrob Agents Chemother, 2009):
Activity calls are given as the source filed them. The calls are words filed in the database; no cut-off is given here.

Legend:
[1] = system: Trypanosoma brucei brucei; assay: Trypanocidal activity against Trypanosoma brucei brucei 427 bloodstream forms infected in mouse L1210 cells after 48 hrs; type: functional, organism-based; conditions: Trypanosoma brucei, 427, L1210, 48 h
[2] = Therapeutic index, EC50 for mouse L1210 cells to EC50 for bloodstream-form Trypanosoma brucei brucei 427; type: cell-based; conditions: read-out: Ratio EC50
L1210 = assay: Cytotoxicity against mouse L1210 cells; type: cell-based
[3] = system: Trypanosoma brucei brucei; assay: Inhibition of Trypanosoma brucei brucei 427 bloodstream forms topoisomerase 1B in assessed as formation of enzyme-DNA cleavable complex at 5 uM
[4] = system: Trypanosoma brucei brucei; assay: Inhibition of Trypanosoma brucei brucei 427 bloodstream form DNA synthesis assessed as inhibition of [3H]thymidine incorporation at 5 uM by liquid scintillation counting; type: functional
[5] = system: Trypanosoma brucei brucei; assay: Inhibition of Trypanosoma brucei brucei 427 bloodstream forms topoisomerase 1B in assessed as formation of enzyme-DNA cleavable complex at 10 uM
[6] = system: Trypanosoma brucei brucei; assay: Inhibition of Trypanosoma brucei brucei 427 bloodstream form DNA synthesis assessed as inhibition of [3H]thymidine incorporation at 10 uM by liquid scintillation counting; type: functional
[7] = system: Trypanosoma brucei brucei; assay: Antitrypanosomal activity against Trypanosoma brucei brucei 427 bloodstream forms infected in CD1 mouse assessed as reduction in parasite load at 50 mg/kg, ip after 4 days; type: functional, organism-based; parameters: dose 50 mg/kg

Structure (SMILES)	EC50 [1] [nM]	selectivity ratio [2]	EC50 (L1210) [nM]	inhibition [3] [%]	inhibition at 5 µM [4] [%]	further results
COc1cc2c3c(n(CCCNCCCNCCN)c(=O)c2cc1OC)-c1cc2c(cc1C3=O)OCO2	970	–	–	–	–	–
COc1cc2c(cc1OC)-c1c(c3ccc([N+](=O)[O-])cc3c(=O)n1CCCN)C2=O	140	–	–	–	–	–
COc1cc2c3c(n(CCCNCCCCN)c(=O)c2cc1OC)-c1cc2c(cc1C3=O)OCO2	990	4.3	250	7	56	–
NCCCn1c2c(c3ccc([N+](=O)[O-])cc3c1=O)C(=O)c1cc(F)ccc1-2	80	–	–	–	–	–
NCCCn1c2c(c3ccc([N+](=O)[O-])cc3c1=O)C(=O)c1ccccc1-2	140	–	–	–	–	–
NCCCn1c2c(c3ccccc3c1=O)C(=O)c1ccccc1-2	380	–	–	–	–	–
COc1cc2c3c(n(CCCNCCNCCCN)c(=O)c2cc1OC)-c1cc2c(cc1C3=O)OCO2	650	4	280	11	44	–
O=C1c2ccccc2-c2c1c1ccccc1c(=O)n2CCCn1ccnc1	4200	–	–	–	–	–
COc1cc2c3c(n(CCCn4ccnc4)c(=O)c2cc1OC)-c1cc2c(cc1C3=O)OCO2 [INDIMITECAN]	60	–	–	–	–	–
COc1cc2c3c(n(CCCN)c(=O)c2cc1OC)-c1cc2c(cc1C3=O)OCO2	120	2.1	420	4	61	–
CC[C@@]1(O)C(=O)OCc2c1cc1n(c2=O)Cc2cc3ccccc3nc2-1 [CAMPTOTHECIN]	–	–	–	–	–	inhibition [5]: 61%; inhibition at 10 µM [6]: 27%
COc1ccc2c(c1)C(=O)c1c-2n(CCCN)c(=O)c2cc(OC)c(OC)cc12	50	5.6	4300	3	68	inhibition [7]: Active
COC(=O)c1ccc2c(c1)C(=O)c1c-2n(CCCN)c(=O)c2cc(OC)c(OC)cc12	170	2.5	2600	12	66	–
O=C1c2ccccc2-c2c1c1ccc([N+](=O)[O-])cc1c(=O)n2CCCn1ccnc1	200	–	–	–	–	–
NCCCn1c2c(c3ccccc3c1=O)C(=O)c1cc3c(cc1-2)OCO3	60	–	–	–	–	–
COc1cc2c3c(n(CCCN)c(=O)c2cc1OC)-c1ccc(C#N)cc1C3=O	350	2.8	970	3	69	–
COc1cc2c3c(n(CCCN)c(=O)c2cc1OC)-c1ccccc1C3=O	130	4.3	2800	4	67	–
COc1cc2c3c(n(CCCn4ccnc4)c(=O)c2cc1OC)-c1ccccc1C3=O	350	–	–	–	–	–
COc1ccc2c(c1)C(=O)c1c-2n(CCCN)c(=O)c2ccccc12	140	–	–	–	–	–
NCCCn1c2c(c3ccc([N+](=O)[O-])cc3c1=O)C(=O)c1cc3c(cc1-2)OCO3	50	–	–	–	–	–
COc1ccc2c(c1)C(=O)c1c-2n(CCCN)c(=O)c2cc([N+](=O)[O-])ccc12	60	–	–	–	–	–
COc1cc2c3c(n(CCCNCCCNCCCNCCCN)c(=O)c2cc1OC)-c1cc2c(cc1C3=O)OCO2	1500	1.9	510	10	34	–
NCCCn1c2c(c3ccc(Br)cc3c1=O)C(=O)c1cc3c(cc1-2)OCO3	160	–	–	–	–	–
